Test results: ChEMBL document CHEMBL5463727, “Data for DCP probe SGK3-PROTAC1” (2023)

Assays:
Conditions in all cases: Compound concentration 1.0 uM
[1] = target: Serine/threonine-protein kinase BRSK2 (Homo sapiens) (UniProt Q8IWQ3); experiment: % Activity remaining of BRSK2 in the Dundee kinase panel at 1.0 µM
[2] = target: Cyclin-dependent kinase 2/cyclin A (Homo sapiens) (UniProt P24941+P20248+P78396); experiment: % Activity remaining of CDK2-Cyclin A in the Dundee kinase panel at 1.0 µM; format: protein-complex assay
[3] = target: Serine/threonine-protein kinase Chk1 (Homo sapiens) (UniProt O14757); experiment: % Activity remaining of CHK1 in the Dundee kinase panel at 1.0 µM
[4] = target: Serine/threonine-protein kinase Chk2 (Homo sapiens) (UniProt O96017); experiment: % Activity remaining of CHK2 in the Dundee kinase panel at 1.0 µM
[5] = target: Dual specificity protein kinase CLK2 (Homo sapiens) (UniProt P49760); experiment: % Activity remaining of CLK2 in the Dundee kinase panel at 1.0 µM
[6] = target: Discoidin domain-containing receptor 2 (Homo sapiens) (UniProt Q16832); experiment: % Activity remaining of DDR2 in the Dundee kinase panel at 1.0 µM
[7] = target: Dual specificity tyrosine-phosphorylation-regulated kinase 1A (Homo sapiens) (UniProt Q13627); experiment: % Activity remaining of DYRK1A in the Dundee kinase panel at 1.0 µM
[8] = target: Ephrin type-A receptor 2 (Homo sapiens) (UniProt P29317); experiment: % Activity remaining of EPH-A2 in the Dundee kinase panel at 1.0 µM
[9] = target: Mitogen-activated protein kinase 1 (Homo sapiens) (UniProt P28482); experiment: % Activity remaining of ERK2 in the Dundee kinase panel at 1.0 µM
[10] = target: Homeodomain-interacting protein kinase 1 (Homo sapiens) (UniProt Q86Z02); experiment: % Activity remaining of HIPK1 in the Dundee kinase panel at 1.0 µM
[11] = target: Homeodomain-interacting protein kinase 3 (Homo sapiens) (UniProt Q9H422); experiment: % Activity remaining of HIPK3 in the Dundee kinase panel at 1.0 µM
[12] = target: Inhibitor of nuclear factor kappa-B kinase subunit epsilon (Homo sapiens) (UniProt Q14164); experiment: % Activity remaining of IKK epsilon in the Dundee kinase panel at 1.0 µM
[13] = target: Insulin receptor (Homo sapiens) (UniProt P06213); experiment: % Activity remaining of IR in the Dundee kinase panel at 1.0 µM
[14] = target: Mitogen-activated protein kinase 9 (Homo sapiens) (UniProt P45984); experiment: % Activity remaining of JNK2 in the Dundee kinase panel at 1.0 µM
[15] = target: Tyrosine-protein kinase Lck (Homo sapiens) (UniProt P06239); experiment: % Activity remaining of Lck in the Dundee kinase panel at 1.0 µM
[16] = target: Serine/threonine-protein kinase STK11 (Homo sapiens) (UniProt Q15831); experiment: % Activity remaining of LKB1 in the Dundee kinase panel at 1.0 µM
[17] = target: Mitogen-activated protein kinase kinase kinase kinase 5 (Homo sapiens) (UniProt Q9Y4K4); experiment: % Activity remaining of MAP4K5 in the Dundee kinase panel at 1.0 µM
[18] = target: MAP/microtubule affinity-regulating kinase 4 (Homo sapiens) (UniProt Q96L34); experiment: % Activity remaining of MARK4 in the Dundee kinase panel at 1.0 µM
[19] = target: Misshapen-like kinase 1 (Homo sapiens) (UniProt Q8N4C8); experiment: % Activity remaining of MINK1 in the Dundee kinase panel at 1.0 µM
[20] = target: MAP kinase-interacting serine/threonine-protein kinase 1 (Homo sapiens) (UniProt Q9BUB5); experiment: % Activity remaining of MNK1 in the Dundee kinase panel at 1.0 µM
[21] = target: MAP kinase-interacting serine/threonine-protein kinase 2 (Homo sapiens) (UniProt Q9HBH9); experiment: % Activity remaining of MNK2 in the Dundee kinase panel at 1.0 µM
[22] = target: Serine/threonine-protein kinase 16 (Homo sapiens) (UniProt O75716); experiment: % Activity remaining of MPSK1 in the Dundee kinase panel at 1.0 µM
[23] = target: NUAK family SNF1-like kinase 1 (Homo sapiens) (UniProt O60285); experiment: % Activity remaining of NUAK1 in the Dundee kinase panel at 1.0 µM
[24] = target: Mitogen-activated protein kinase 11 (Homo sapiens) (UniProt Q15759); experiment: % Activity remaining of p38 beta MAPK in the Dundee kinase panel at 1.0 µM
[25] = target: Mitogen-activated protein kinase 13 (Homo sapiens) (UniProt O15264); experiment: % Activity remaining of p38 delta MAPK in the Dundee kinase panel at 1.0 µM
[26] = target: Serine/threonine-protein kinase PAK 6 (Homo sapiens) (UniProt Q9NQU5); experiment: % Activity remaining of PAK6 in the Dundee kinase panel at 1.0 µM
[27] = target: cAMP-dependent protein kinase catalytic subunit alpha (Homo sapiens) (UniProt P17612); experiment: % Activity remaining of PKA in the Dundee kinase panel at 1.0 µM
[28] = target: Protein kinase C alpha type (Homo sapiens) (UniProt P17252); experiment: % Activity remaining of PKC alpha in the Dundee kinase panel at 1.0 µM
[29] = target: Protein kinase C gamma type (Homo sapiens) (UniProt P05129); experiment: % Activity remaining of PKC gamma in the Dundee kinase panel at 1.0 µM
[30] = target: Rho-associated protein kinase 2 (Homo sapiens) (UniProt O75116); experiment: % Activity remaining of ROCK 2 in the Dundee kinase panel at 1.0 µM
[31] = target: Ribosomal protein S6 kinase alpha-3 (Homo sapiens) (UniProt P51812); experiment: % Activity remaining of RSK2 in the Dundee kinase panel at 1.0 µM
[32] = target: Serine/threonine-protein kinase SIK3 (Homo sapiens) (UniProt Q9Y2K2); experiment: % Activity remaining of SIK3 in the Dundee kinase panel at 1.0 µM
[33] = target: Tyrosine-protein kinase SYK (Homo sapiens) (UniProt P43405); experiment: % Activity remaining of SYK in the Dundee kinase panel at 1.0 µM
[34] = target: Serine/threonine-protein kinase TBK1 (Homo sapiens) (UniProt Q9UHD2); experiment: % Activity remaining of TBK1 in the Dundee kinase panel at 1.0 µM
[35] = target: Testis-specific serine/threonine-protein kinase 1 (Homo sapiens) (UniProt Q9BXA7); experiment: % Activity remaining of TSSK1 in the Dundee kinase panel at 1.0 µM
[36] = target: Tau-tubulin kinase 2 (Homo sapiens) (UniProt Q6IQ55); experiment: % Activity remaining of TTBK2 in the Dundee kinase panel at 1.0 µM
[37] = target: Vascular endothelial growth factor receptor 1 (Homo sapiens) (UniProt P17948); experiment: % Activity remaining of VEGFR1 in the Dundee kinase panel at 1.0 µM
[38] = target: 3-phosphoinositide-dependent protein kinase 1 (Homo sapiens) (UniProt O15530); experiment: % Activity remaining of PDK1 in the Dundee kinase panel at 1.0 µM

Serine/threonine-protein kinase PAK 6 (Homo sapiens), sequence (Q9NQU5 whole entry, looked up): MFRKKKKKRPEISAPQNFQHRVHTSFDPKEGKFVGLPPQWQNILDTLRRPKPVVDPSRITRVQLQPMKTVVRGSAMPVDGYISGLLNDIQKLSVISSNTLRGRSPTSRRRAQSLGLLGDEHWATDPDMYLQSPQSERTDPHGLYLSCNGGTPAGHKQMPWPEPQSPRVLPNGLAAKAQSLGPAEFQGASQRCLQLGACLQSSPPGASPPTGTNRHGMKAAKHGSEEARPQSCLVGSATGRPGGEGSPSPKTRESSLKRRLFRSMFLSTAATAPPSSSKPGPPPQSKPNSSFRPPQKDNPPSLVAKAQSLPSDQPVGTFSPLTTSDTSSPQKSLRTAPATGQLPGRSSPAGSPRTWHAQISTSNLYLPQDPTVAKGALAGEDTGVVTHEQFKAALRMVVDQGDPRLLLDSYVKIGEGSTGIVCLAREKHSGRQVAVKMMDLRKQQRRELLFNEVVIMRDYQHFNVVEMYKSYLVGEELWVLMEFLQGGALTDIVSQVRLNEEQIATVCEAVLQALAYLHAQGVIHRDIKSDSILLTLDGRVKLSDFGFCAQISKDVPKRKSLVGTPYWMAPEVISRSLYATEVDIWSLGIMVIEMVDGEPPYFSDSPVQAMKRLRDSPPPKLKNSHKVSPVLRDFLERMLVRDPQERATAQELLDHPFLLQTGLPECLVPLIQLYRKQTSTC
Inhibitor of nuclear factor kappa-B kinase subunit epsilon (Homo sapiens), sequence (Q14164 whole entry): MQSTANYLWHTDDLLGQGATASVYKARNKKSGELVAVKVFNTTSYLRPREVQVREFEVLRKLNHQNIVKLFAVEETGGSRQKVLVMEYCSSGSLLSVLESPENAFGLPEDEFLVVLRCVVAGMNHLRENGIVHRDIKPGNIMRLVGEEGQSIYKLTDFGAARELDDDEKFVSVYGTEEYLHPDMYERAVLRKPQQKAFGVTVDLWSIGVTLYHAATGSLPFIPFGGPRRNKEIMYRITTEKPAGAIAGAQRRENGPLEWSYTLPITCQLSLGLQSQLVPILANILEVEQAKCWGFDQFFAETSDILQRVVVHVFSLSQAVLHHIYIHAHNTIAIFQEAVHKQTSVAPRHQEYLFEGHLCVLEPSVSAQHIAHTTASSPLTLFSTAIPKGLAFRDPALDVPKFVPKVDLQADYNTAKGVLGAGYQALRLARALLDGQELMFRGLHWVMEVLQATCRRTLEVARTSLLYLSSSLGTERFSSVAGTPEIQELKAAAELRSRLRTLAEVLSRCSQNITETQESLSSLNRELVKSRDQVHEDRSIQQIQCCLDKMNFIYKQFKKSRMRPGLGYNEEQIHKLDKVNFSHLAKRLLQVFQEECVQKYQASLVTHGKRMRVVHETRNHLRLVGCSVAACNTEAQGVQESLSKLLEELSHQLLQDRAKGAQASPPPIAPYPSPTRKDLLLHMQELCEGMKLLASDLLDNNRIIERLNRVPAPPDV
Misshapen-like kinase 1 (Homo sapiens), sequence (Q8N4C8 whole entry, looked up): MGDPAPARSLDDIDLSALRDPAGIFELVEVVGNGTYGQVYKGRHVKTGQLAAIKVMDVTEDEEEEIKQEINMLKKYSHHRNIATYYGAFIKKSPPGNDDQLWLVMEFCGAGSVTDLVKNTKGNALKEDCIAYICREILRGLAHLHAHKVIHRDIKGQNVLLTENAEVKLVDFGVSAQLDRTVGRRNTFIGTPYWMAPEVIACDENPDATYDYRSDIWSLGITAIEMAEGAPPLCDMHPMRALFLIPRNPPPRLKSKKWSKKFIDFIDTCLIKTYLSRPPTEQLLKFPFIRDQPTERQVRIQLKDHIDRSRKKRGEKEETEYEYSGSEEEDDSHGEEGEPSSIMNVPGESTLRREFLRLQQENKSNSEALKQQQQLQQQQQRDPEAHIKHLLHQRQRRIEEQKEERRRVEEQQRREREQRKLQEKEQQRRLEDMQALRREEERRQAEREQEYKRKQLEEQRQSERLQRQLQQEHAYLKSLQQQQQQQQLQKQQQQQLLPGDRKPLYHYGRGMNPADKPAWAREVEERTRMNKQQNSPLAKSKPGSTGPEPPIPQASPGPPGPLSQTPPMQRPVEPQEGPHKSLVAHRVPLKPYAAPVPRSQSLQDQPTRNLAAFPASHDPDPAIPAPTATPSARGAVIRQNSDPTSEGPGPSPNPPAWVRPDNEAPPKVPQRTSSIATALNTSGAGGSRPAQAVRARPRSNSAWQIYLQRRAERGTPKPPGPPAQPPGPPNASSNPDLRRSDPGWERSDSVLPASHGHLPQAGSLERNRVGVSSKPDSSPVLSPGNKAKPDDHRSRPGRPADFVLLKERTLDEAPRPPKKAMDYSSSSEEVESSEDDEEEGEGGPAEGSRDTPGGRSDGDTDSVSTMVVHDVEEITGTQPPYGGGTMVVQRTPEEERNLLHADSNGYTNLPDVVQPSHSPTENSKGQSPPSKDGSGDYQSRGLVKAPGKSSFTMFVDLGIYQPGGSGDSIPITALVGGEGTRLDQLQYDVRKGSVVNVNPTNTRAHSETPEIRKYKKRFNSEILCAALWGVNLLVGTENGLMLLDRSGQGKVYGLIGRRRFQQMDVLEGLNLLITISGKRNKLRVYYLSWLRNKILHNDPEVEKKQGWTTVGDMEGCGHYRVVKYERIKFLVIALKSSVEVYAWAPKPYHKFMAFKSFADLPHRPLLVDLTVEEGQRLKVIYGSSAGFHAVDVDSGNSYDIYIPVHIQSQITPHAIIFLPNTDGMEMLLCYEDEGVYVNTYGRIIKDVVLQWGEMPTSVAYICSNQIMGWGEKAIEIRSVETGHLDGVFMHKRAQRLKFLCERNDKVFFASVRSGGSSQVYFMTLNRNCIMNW
Vascular endothelial growth factor receptor 1 (Homo sapiens), sequence (P17948 whole entry): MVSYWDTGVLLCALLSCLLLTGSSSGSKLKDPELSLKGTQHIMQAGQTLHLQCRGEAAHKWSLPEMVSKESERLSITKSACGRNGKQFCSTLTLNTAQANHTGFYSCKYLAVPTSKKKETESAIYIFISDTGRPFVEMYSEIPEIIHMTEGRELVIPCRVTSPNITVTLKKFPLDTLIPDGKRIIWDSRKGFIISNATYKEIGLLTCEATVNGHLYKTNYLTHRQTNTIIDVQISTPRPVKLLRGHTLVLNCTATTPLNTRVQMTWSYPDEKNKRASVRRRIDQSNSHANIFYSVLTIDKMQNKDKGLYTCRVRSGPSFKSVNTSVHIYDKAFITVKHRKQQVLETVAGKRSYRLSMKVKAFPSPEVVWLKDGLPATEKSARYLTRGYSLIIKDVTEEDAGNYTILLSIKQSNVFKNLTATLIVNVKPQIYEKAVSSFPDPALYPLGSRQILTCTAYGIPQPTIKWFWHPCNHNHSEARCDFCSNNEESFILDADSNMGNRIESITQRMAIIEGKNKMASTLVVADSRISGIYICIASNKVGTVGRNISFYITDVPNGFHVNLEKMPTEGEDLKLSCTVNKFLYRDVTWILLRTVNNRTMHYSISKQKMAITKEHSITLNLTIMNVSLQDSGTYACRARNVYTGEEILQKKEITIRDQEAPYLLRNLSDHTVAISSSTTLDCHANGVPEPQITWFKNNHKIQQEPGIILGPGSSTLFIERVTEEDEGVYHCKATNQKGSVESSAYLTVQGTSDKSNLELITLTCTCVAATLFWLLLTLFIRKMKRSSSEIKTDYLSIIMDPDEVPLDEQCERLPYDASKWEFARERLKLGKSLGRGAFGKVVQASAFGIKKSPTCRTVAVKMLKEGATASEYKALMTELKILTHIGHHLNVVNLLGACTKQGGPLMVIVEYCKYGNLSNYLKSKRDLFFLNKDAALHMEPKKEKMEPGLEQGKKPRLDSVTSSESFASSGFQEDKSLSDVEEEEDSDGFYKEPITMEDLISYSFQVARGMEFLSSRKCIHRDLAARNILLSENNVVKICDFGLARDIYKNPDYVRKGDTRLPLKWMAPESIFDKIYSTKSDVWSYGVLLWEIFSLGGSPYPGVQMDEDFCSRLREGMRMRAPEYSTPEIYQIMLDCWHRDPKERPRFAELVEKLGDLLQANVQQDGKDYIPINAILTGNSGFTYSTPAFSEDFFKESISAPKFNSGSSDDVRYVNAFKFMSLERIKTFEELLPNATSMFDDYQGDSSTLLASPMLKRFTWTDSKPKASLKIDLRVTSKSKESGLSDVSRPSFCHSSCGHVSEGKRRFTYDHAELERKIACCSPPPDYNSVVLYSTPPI
Serine/threonine-protein kinase 16 (Homo sapiens), sequence (O75716 whole entry): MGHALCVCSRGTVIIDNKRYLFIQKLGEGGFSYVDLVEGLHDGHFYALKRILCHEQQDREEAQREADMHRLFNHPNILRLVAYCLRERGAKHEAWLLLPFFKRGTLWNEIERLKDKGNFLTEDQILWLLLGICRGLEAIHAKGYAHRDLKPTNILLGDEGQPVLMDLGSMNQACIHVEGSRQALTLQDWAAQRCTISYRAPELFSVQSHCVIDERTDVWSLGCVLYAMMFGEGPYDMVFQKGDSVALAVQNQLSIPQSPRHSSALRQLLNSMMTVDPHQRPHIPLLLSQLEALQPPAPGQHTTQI

| % Activity remaining [1] [%] | % Activity remaining [2] [%] | % Activity remaining [3] [%] | % Activity remaining [4] [%] | % Activity remaining [5] [%] | % Activity remaining [6] [%] | % Activity remaining [7] [%] | % Activity remaining [8] [%] | % Activity remaining [9] [%] | % Activity remaining [10] [%] | % Activity remaining [11] [%] | % Activity remaining [12] [%] | % Activity remaining [13] [%] | % Activity remaining [14] [%] | % Activity remaining [15] [%] | % Activity remaining [16] [%] | % Activity remaining [17] [%] | % Activity remaining [18] [%] | % Activity remaining [19] [%] | % Activity remaining [20] [%] | Compound | further results |
| --- | --- | --- | --- | --- | --- | --- | --- | --- | --- | --- | --- | --- | --- | --- | --- | --- | --- | --- | --- | --- | --- |
| 97.2 | 101 | 111 | 84.8 | 104 | 114 | 105 | 94.2 | 104 | 135 | 111 | 108 | 103 | 117 | 124 | 105 | 98.6 | 105 | 115 | 108 | Cc1ccc(F)c(S(=O)(=O)Nc2ccc(-c3nc(OC[C@H]4CN(CCCCCCOCCOCCOCC(=O)N[C@H](C(=O)N5C[C@H](O)C[C@H]5C(=O)NCc5ccc(-c6scnc6C)cc5)C(C)(C)C)CCO4)c4cn[nH]c4n3)cc2)c1 | % Activity remaining [21]: 122%; % Activity remaining [22]: 127%; % Activity remaining [23]: 98%; % Activity remaining [24]: 107%; % Activity remaining [25]: 103%; % Activity remaining [26]: 97.9%; % Activity remaining [27]: 108%; % Activity remaining [28]: 121%; % Activity remaining [29]: 103%; % Activity remaining [30]: 113%; % Activity remaining [31]: 120%; % Activity remaining [32]: 78.7%; % Activity remaining [33]: 116%; % Activity remaining [34]: 93.4%; % Activity remaining [35]: 115%; % Activity remaining [36]: 93.5%; % Activity remaining [37]: 120%; % Activity remaining [38]: 99.3% |
| 101 | 103 | 126 | 99.1 | 84.8 | 134 | 99 | 104 | 95.2 | 126 | 105 | 99 | 93.9 | 109 | 116 | 112 | 101 | 100 | 116 | 103 | Cc1ccc(F)c(S(=O)(=O)Nc2ccc(-c3nc(OC[C@H]4CN(CCCCCCOCCOCCOCC(=O)N[C@H](C(=O)N5C[C@@H](O)C[C@H]5C(=O)NCc5ccc(-c6scnc6C)cc5)C(C)(C)C)CCO4)c4cn[nH]c4n3)cc2)c1 | % Activity remaining [21]: 122%; % Activity remaining [22]: 139%; % Activity remaining [23]: 90%; % Activity remaining [24]: 112%; % Activity remaining [25]: 121%; % Activity remaining [26]: 99.5%; % Activity remaining [27]: 111%; % Activity remaining [28]: 118%; % Activity remaining [29]: 99.9%; % Activity remaining [30]: 119%; % Activity remaining [31]: 109%; % Activity remaining [32]: 117%; % Activity remaining [33]: 103%; % Activity remaining [34]: 111%; % Activity remaining [35]: 113%; % Activity remaining [36]: 89.7%; % Activity remaining [37]: 103%; % Activity remaining [38]: 86.5% |
